How the values were obtained:
frataxin = test: Frataxin protein expression (Western blot) in FRDA lymphocytes; format: cell-based, human; conditions: for level of frataxin (western blot): FRDA lymphocytes, FIG. 9
Description: Human mitochondrial disease cell line, Friedreich's ataxia lymphocytes (GM15850) was obtained from Coriell Cell Repositories (Camden, N.J.). Lymphocytes were cultured in RPMI-1640 medium (Gibco, Life Technologies, Grand Island, N.Y.) with 15% fetal calf serum, 2 mM glutamine (HyClone, South Logan, Utah) and 1% penicillin-streptomycin antibiotic supplement (Cellgro, Manassas, Va.). Cells were passaged every other day to maintain them in log phase growth and kept at a nominal concentration of 5-10×10^5 cell/mL. A CoQ10 deficient lymphocyte cell line (GM17932) was obtained from Coriell Cell Repositories. A nutrient sensitized screening strategy to identify methylene blue analogues that function within the mitochondrial respiratory chain was used by growing the CoQ10-deficient or FRDA lymphocytes in galactose containing media to force energy production predominantly through oxidative phosphorylation rather than glycolysis.^1-4 The lymphocytes were cultured in RPMI 1640 glucose free medium (Gibco, Grand Island, N.Y.) supplemented with 25 mM galactose, 2 mM glutamine and 1% penicillin-streptomycin, and 10% dialyzed fetal bovine serum (FBS) (<0.5 μg/mL) (Gemini Bio-Product, West Sacramento, Calif.).
Immortalized normal and FRDA lymphocyte cell lines were seeded at 500,000 cells per/mL (5 mL) in T-25 flask. Cultures were treated with the test compounds and incubated for 24 h. Cells were harvested by centrifugation, washed with saline buffer and then were lysed using 200 μL of lysis buffer (1% triton X-100, 0.1% SDS, Tris-HCl (50 Mm) pH 7.4, 150 mM NaCl, 0.5% sodium deoxycholate, 0.1 mM EDTA) with protease inhibitors (protease cocktail inhibitors (Roche Applied Science) and 1 mM phenylmethylsulfonyl fluoride (Sigma), and incubated on ice for 30 min with periodical mixing. These samples were cleared of insoluble material by centrifugation at 20,000×g for 10 min at 4° C. Total protein concentration was measured by the BCA kit (Thermo Fisher Scientific). NuPAGE LDS Sample Buffer (4×) and NuPAGE Reducing Agent (10×) was added the lysate and they were denatured at 95° C. for 5 min, then equal amounts of lysates ([…]) were used for immunoblotting. Samples were resolved on a 4%-12% SDS-polyacrylamide Bis-Tris gels (Invitrogen) according to the manufacturer's recommendations and then proteins were transferred to nitrocellulose membranes. After blocking with Superblock-TBS (Thermo Fisher Scientific) for 1 hour to inhibit non-specific binding the blot was incubated with anti-frataxin monoclonal antibody (5 μg/mL) (18A5DB1) (Novex®) (Life technologies) overnight at 4° C. to detect endogenous frataxin in FRDA and normal lymphocytes. Following three 5-min washes with TBST, the blots were incubated with horseradish peroxidase-linked secondary […] antibody IgGs (1:10,000, Sigma, in Superblock-TBS) at room temperature for 1 hr. The blots were washed three times for 5 min with TBST, rinsed with deionized H2O, and developed with enhanced chemiluminescence (ECL) (BioRad Chemi-Doc) using West Pico Chemiluminescent Substrate (Pierce Biotechnology).

[1] = system: bovine heart mitochondrial NADH oxidase activity (complexes I, III and IV); test: NADH oxidase activity in bovine heart mitochondria; format: biochemical; conditions: complex I completely blocked by rotenone; FIG. 6
Description: The effect of the methylene blue analogues on the activities of complexes I, III and IV within the respiratory chain was evaluated using bovine heart mitochondria during the oxidation of their respective substrate (NADH) as described previously. Briefly, a small scale preparation of bovine heart mitochondria was prepared as described before (Smith, A. L (1967), Methods Enzymol. 10, 81). Bovine heart submitochondrial particles (SMPs) were prepared as described by Matsuno-Yagi and stored in a buffer containing 0.25 M sucrose and 10 mM Tris-HCl, pH 7.4, at −80° C. (Matsuno-Yagi, A.; Hatefi, Y. J. (1985) J. Biol. Chem. 260, 11424). SMPs were diluted to 0.5 mg/mL. Mitochondrial complexes I, III, and IV activity were assayed at 30 C and monitored spectrophotometrically using a Beckman Coulter DU-530 (340 nm, ε=6.22 mM^−1 cm^−1). NADH oxidase activity was determined in 50 mM Hepes buffer containing 5 mM MgCl2, pH 7.5, in a total volume of 2.5 mL. The final mitochondrial protein concentration was 30 μg/mL. The initial rates of NADH oxidation were calculated from the linear portion of the traces.

| Compound | level of frataxin (western blot) (frataxin; higher concentration) | level of frataxin (western blot) (frataxin; lower concentration) | frataxin levels (frataxin; general statement, concentration not given) | effect on NADH oxidase activity: redirection of electron flow in the respiratory chain [1] |
| --- | --- | --- | --- | --- |
| CN(C)c1ccc2nc3ccc(=[N+](C)C)cc-3sc2c1 [Methylene blue, 3,7-bis(dimethylamino)phenazathionium chloride, reference compound] | did not | slightly increased |  |  |
| CCCCCCCCCCCCCCCN(CCCC)c1ccc2nc3ccc(=O)cc-3sc2c1 [compound 33, 7-(butyl(pentadecyl)amino)-3H-phenothiazin-3-one] | significantly increased | significantly increased | significantly increased |  |
| CCCCCCCCCCCCCCCCCc1cc2nc3ccc(N(C)C)cc3sc-2cc1=[N+](C)C [compound 5, N-(7-(dimethylamino)-2-heptadecyl-3H-phenothiazin-3-ylidene)-N-methylmethan-aminium iodide] |  |  |  | able redirect electron flow in the respiratory chain |
